Biological target: S. aureus GyrB ATPase (Staphylococcus aureus, UniProt P0A0K8)
Assay: biochemical
Conditions: compound at 1 μM; one value per test if tested more than once; read-out: % Inhibition of S. aureus GyrB ATPase
Method in brief: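 IC50 values derive from 10-point titrations of compound (in DMSO). Phosphate formed from 250 μM ATP was quantified by acidic molybdate/malachite green after quenching.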

Sequence of S. aureus GyrB ATPase (P0A0K8 whole entry): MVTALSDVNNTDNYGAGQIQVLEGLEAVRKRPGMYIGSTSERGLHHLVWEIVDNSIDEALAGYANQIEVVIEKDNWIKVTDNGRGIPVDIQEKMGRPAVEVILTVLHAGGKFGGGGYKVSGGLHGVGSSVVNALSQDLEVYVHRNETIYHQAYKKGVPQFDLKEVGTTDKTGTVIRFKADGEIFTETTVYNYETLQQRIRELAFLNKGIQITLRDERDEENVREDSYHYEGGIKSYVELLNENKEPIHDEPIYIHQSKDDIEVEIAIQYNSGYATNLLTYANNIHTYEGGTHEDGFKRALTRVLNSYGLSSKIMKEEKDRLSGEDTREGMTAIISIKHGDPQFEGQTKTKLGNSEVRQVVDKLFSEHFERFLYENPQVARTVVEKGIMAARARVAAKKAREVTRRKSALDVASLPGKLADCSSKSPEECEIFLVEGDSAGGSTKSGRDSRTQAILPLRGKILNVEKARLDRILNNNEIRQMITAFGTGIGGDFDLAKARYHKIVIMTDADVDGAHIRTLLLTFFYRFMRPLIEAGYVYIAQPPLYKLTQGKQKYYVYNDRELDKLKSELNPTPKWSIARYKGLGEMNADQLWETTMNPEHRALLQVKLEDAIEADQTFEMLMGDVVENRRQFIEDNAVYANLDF
Sequence of S. aureus GyrB ATPase (P0AES4 whole entry, further chain): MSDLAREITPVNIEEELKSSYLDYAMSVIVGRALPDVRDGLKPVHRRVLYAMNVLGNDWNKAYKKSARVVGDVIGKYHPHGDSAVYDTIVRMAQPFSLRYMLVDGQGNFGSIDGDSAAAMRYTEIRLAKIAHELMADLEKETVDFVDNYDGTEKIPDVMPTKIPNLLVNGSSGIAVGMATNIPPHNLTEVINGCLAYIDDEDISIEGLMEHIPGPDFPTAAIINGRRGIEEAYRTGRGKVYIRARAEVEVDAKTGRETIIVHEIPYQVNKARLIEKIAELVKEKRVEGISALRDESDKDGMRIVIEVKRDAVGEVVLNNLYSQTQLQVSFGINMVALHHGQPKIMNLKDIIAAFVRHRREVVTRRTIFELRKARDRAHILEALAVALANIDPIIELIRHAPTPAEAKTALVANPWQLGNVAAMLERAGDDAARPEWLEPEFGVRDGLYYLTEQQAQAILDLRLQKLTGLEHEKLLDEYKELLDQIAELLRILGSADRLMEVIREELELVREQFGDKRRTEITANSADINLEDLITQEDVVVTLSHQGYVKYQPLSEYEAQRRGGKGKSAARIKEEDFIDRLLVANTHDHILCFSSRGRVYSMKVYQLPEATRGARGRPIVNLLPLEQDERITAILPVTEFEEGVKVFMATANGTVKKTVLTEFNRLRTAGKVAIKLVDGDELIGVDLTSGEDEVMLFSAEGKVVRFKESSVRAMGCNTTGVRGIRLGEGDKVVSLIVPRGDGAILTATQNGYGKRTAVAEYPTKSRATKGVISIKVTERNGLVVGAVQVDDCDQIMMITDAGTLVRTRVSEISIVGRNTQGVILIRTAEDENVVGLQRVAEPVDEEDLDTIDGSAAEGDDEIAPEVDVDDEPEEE

| SMILES | inhibition at 1 µM |
| --- | --- |
| CCNC(=O)Nc1cc(-c2nc(C(F)(F)F)cs2)c(-c2ccc3c(=O)c(C(=O)NCCO)cn(CC(C)C)c3c2)cn1 [Example 342, 7-{6-[(ethylcarbamoyl)amino]-4-[4-(trifluoromethyl)-1,3-thiazol-2-yl]pyridin-3-yl}-N-(2-hydroxyethyl)-1-(2-methylpropyl)-4-oxo-1,4-dihydroquinoline-3-carboxamide] | 99% |
| CCNC(=O)Nc1cc(-c2nc(C(F)(F)F)cs2)c(-c2ccc3c(=O)c(C(=O)NCCCO)cn(CC(C)C)c3c2)cn1 [Example 343, 7-{6-[(ethylcarbamoyl)amino]-4-[4-(trifluoromethyl)-1,3-thiazol-2-yl]pyridin-3-yl}-N-(3-hydroxypropyl)-1-(2-methylpropyl)-4-oxo-1,4-dihydroquinoline-3-carboxamide] | 98% |
| CCNC(=O)Nc1cc(-c2nc(C(F)(F)F)cs2)c(-c2ccc3c(=O)c(C(=O)NCCN(C)C)cn(CC(C)C)c3c2)cn1 [Example 344, N-[2-(dimethylamino)ethyl]-7-{6-[(ethylcarbamoyl)amino]-4-[4-(trifluoromethyl)-1,3-thiazol-2-yl]pyridin-3-yl}-1-(2-methylpropyl)-4-oxo-1,4-dihydroquinoline-3-carboxamide] | 95% |
| CCNC(=O)Nc1cc(-c2nc(C(F)(F)F)cs2)c(-c2ccc3c(=O)c(C(=O)NCCN4CCOCC4)cn(CC(C)C)c3c2)cn1 [Example 345, 7-{6-[(ethylcarbamoyl)amino]-4-[4-(trifluoromethyl)-1,3-thiazol-2-yl]pyridin-3-yl}-1-(2-methylpropyl)-N-[2-(morpholin-4-yl)ethyl]-4-oxo-1,4-dihydroquinoline-3-carboxamide] | 98% |
| CCNC(=O)Nc1cc(-c2nc(C(F)(F)F)cs2)c(-c2ccc3c(=O)c(C(=O)NCCN4CCN(C)CC4)cn(CC(C)C)c3c2)cn1 [Example 346, 7-{6-[(ethylcarbamoyl)amino]-4-[4-(trifluoromethyl)-1,3-thiazol-2-yl]pyridin-3-yl}-N-[2-(4-methylpiperazin-1-yl)ethyl]-1-(2-methylpropyl)-4-oxo-1,4-dihydroquinoline-3-carboxamide] | 87% |
| CCCn1cc(C(=O)NC)c(=O)c2ccc(-c3cnc(NC(=O)NCC)cc3-c3nc(C(F)(F)F)cs3)cc21 [Example 347, 7-{6-[(ethylcarbamoyl)amino]-4-[4-(trifluoromethyl)-1,3-thiazol-2-yl]pyridin-3-yl}-N-methyl-4-oxo-1-propyl-1,4-dihydroquinoline-3-carboxamide] | 100% |
| CCCn1cc(C(=O)NCCO)c(=O)c2ccc(-c3cnc(NC(=O)NCC)cc3-c3nc(C(F)(F)F)cs3)cc21 [Example 348, 7-{6-[(ethylcarbamoyl)amino]-4-[4-(trifluoromethyl)-1,3-thiazol-2-yl]pyridin-3-yl}-N-(2-hydroxyethyl)-4-oxo-1-propyl-1,4-dihydroquinoline-3-carboxamide] | 98% |
| CCCn1cc(C(=O)NCCCO)c(=O)c2ccc(-c3cnc(NC(=O)NCC)cc3-c3nc(C(F)(F)F)cs3)cc21 [Example 349, 7-{6-[(ethylcarbamoyl)amino]-4-[4-(trifluoromethyl)-1,3-thiazol-2-yl]pyridin-3-yl}-N-(3-hydroxypropyl)-4-oxo-1-propyl-1,4-dihydroquinoline-3-carboxamide] | 108% |
| CCCn1cc(C(=O)NCCN(C)C)c(=O)c2ccc(-c3cnc(NC(=O)NCC)cc3-c3nc(C(F)(F)F)cs3)cc21 [Example 350, N-[2-(dimethylamino)ethyl]-7-{6-[(ethylcarbamoyl)amino]-4-[4-(trifluoromethyl)-1,3-thiazol-2-yl]pyridin-3-yl}-4-oxo-1-propyl-1,4-dihydroquinoline-3-carboxamide] | 96% |
| CCCn1cc(C(=O)NCCN2CCOCC2)c(=O)c2ccc(-c3cnc(NC(=O)NCC)cc3-c3nc(C(F)(F)F)cs3)cc21 [Example 351, 7-{6-[(ethylcarbamoyl)amino]-4-[4-(trifluoromethyl)-1,3-thiazol-2-yl]pyridin-3-yl}-N-[2-(morpholin-4-yl)ethyl]-4-oxo-1-propyl-1,4-dihydroquinoline-3-carboxamide] | 95% |
| CCCn1cc(C(=O)NCCN2CCN(C)CC2)c(=O)c2ccc(-c3cnc(NC(=O)NCC)cc3-c3nc(C(F)(F)F)cs3)cc21 [Example 352, 7-{6-[(Ethylcarbamoyl)amino]-4-[4-(trifluoromethyl)-1,3-thiazol-2-yl]pyridin-3-yl}-N-[2-(4-methylpiperazin-1-yl)ethyl]-4-oxo-1-propyl-1,4-dihydroquinoline-3-carboxamide] | 88% |
| CCNC(=O)Nc1cc(-c2nc(C(F)(F)F)cs2)c(-c2ccc3c(=O)c(C(=O)NC)cn(Cc4ccccc4)c3c2)cn1 [Example 353, 1-Benzyl-7-{6-[(ethylcarbamoyl)amino]-4-[4-(trifluoromethyl)-1,3-thiazol-2-yl]pyridin-3-yl}-N-methyl-4-oxo-1,4-dihydroquinoline-3-carboxamide] | 99% |
| CCNC(=O)Nc1cc(-c2nc(C(F)(F)F)cs2)c(-c2ccc3c(=O)c(C(=O)NCCO)cn(Cc4ccccc4)c3c2)cn1 [Example 354, 1-Benzyl-7-{6-[(ethylcarbamoyl)amino]-4-[4-(trifluoromethyl)-1,3-thiazol-2-yl]pyridin-3-yl}-N-(2-hydroxyethyl)-4-oxo-1,4-dihydroquinoline-3-carboxamide] | 98% |
| CCNC(=O)Nc1cc(-c2nc(C(F)(F)F)cs2)c(-c2ccc3c(=O)c(C(=O)NCCCO)cn(Cc4ccccc4)c3c2)cn1 [Example 355, 1-Benzyl-7-{6-[(ethylcarbamoyl)amino]-4-[4-(trifluoromethyl)-1,3-thiazol-2-yl]pyridin-3-yl}-N-(3-hydroxypropyl)-4-oxo-1,4-dihydroquinoline-3-carboxamide] | 87% |
| CCNC(=O)Nc1cc(-c2nc(C(F)(F)F)cs2)c(-c2ccc3c(=O)c(C(=O)NCCN(C)C)cn(Cc4ccccc4)c3c2)cn1 [Example 356, 1-Benzyl-N-[2-(dimethylamino)ethyl]-7-{6-[(ethylcarbamoyl)amino]-4-[4-(trifluoromethyl)-1,3-thiazol-2-yl]pyridin-3-yl}-4-oxo-1,4-dihydroquinoline-3-carboxamide] | 85% |
| CCNC(=O)Nc1cc(-c2nc(C(F)(F)F)cs2)c(-c2ccc3c(=O)c(C(=O)NCCN4CCOCC4)cn(Cc4ccccc4)c3c2)cn1 [Example 357, 1-Benzyl-7-{6-[(ethylcarbamoyl)amino]-4-[4-(trifluoromethyl)-1,3-thiazol-2-yl]pyridin-3-yl}-N-[2-(morpholin-4-yl)ethyl]-4-oxo-1,4-dihydroquinoline-3-carboxamide] | 87% |
| CCNC(=O)Nc1cc(-c2nc(C(F)(F)F)cs2)c(-c2ccc3c(=O)c(C(=O)NCCN4CCN(C)CC4)cn(Cc4ccccc4)c3c2)cn1 [Example 358, 1-Benzyl-7-{6-[(ethylcarbamoyl)amino]-4-[4-(trifluoromethyl)-1,3-thiazol-2-yl]pyridin-3-yl}-N-[2-(4-methylpiperazin-1-yl)ethyl]-4-oxo-1,4-dihydroquinoline-3-carboxamide] | 95% |

Reference: patent US8283361B2 (AstraZeneca AB, priority 2008, dated 2012)
